PubChem BioAssay AID248 (DTP/NCI, 2004)
Inconclusive results and toxic doses are left out. Cut-off read from the data, not from the text of the source: active = T/C of 150% or more; inactive = T/C below 125%.

System: L1210 leukemia ip in BDF1 mice, survival T/C
Assay: NCI In Vivo Anticancer Drug Screen. Data for tumor model L1210 Leukemia (intraperitoneal) in B6D2F1 (BDF1) mice
Conditions: endpoint: mean survival time, higher = longer survival
Outline: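 Each compound was tested against a transplantable tumor grown in mice. The endpoint was survival, with treated animals benchmarked against vehicle controls as a simple ratio.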

[1] = dose: 100.0 mg/kg/injection, schedule: Q04DX003 (ip), vehicle: saline with Tween-80
[2] = dose: 200.0 mg/kg/injection, schedule: Q04DX003 (ip), vehicle: saline with Tween-80
[3] = dose: 400.0 mg/kg/injection, schedule: Q04DX003 (ip), vehicle: saline with Tween-80
[4] = dose: 100.0 mg/kg/injection, schedule: Q04DX003 (ip), vehicle: Klucel (hydroxypropylcellulose) (HPC)
[5] = dose: 200.0 mg/kg/injection, schedule: Q04DX003 (ip), vehicle: Klucel (hydroxypropylcellulose) (HPC)
[6] = dose: 400.0 mg/kg/injection, schedule: Q04DX003 (ip), vehicle: Klucel (hydroxypropylcellulose) (HPC)
[7] = dose: 100.0 mg/kg/injection, schedule: Q04DX003 (ip), vehicle: saline
[8] = dose: 200.0 mg/kg/injection, schedule: Q04DX003 (ip), vehicle: saline

Measured: T/C

ClC(Cl)C1OCCOCCO1
inactive: dose: 100.0 mg/kg/injection, schedule: Q04DX002 (ip), vehicle: Klucel (hydroxypropylcellulose) (HPC) 97 % of control | dose: 200.0 mg/kg/injection, schedule: Q04DX002 (ip), vehicle: Klucel (hydroxypropylcellulose) (HPC) 100 % of control | dose: 400.0 mg/kg/injection, schedule: Q04DX002 (ip), vehicle: Klucel (hydroxypropylcellulose) (HPC) 97 % of control

C=C1C(=O)O[C@@H]2C[C@@H](C)[C@@H]3[C@@H](OC4OC(COC(C)=O)C(O)C(O)C4O)CC(=O)[C@@]3(C)C[C@H]12 (some centres not stated)
inactive: dose: 6.4 mg/kg/injection, schedule: Q01DX009 (ip), vehicle: saline 101 % of control | dose: 9.6 mg/kg/injection, schedule: Q01DX009 (ip), vehicle: saline 97 % of control | dose: 14.0 mg/kg/injection, schedule: Q01DX009 (ip), vehicle: saline 104 % of control | dose: 22.0 mg/kg/injection, schedule: Q01DX009 (ip), vehicle: saline 98 % of control | [1] 100 % of control | [2] 89 % of control | [3] 94 % of control

CCCCNCC#N
inactive: dose: 50.0 mg/kg/injection, schedule: Q01DX001 (ip), vehicle: saline 110 % of control

Cc1nc2ccccc2c(=O)n1-c1ccc(N(CCCl)CCCl)cc1
inactive: dose: 100.0 mg/kg/injection, schedule: Q04DX002 (ip), vehicle: saline 98 % of control | dose: 200.0 mg/kg/injection, schedule: Q04DX002 (ip), vehicle: saline 117 % of control | dose: 400.0 mg/kg/injection, schedule: Q04DX002 (ip), vehicle: saline 103 % of control

Cc1c(C)c([N+](=O)[O-])c(I)c(C)c1[N+](=O)[O-]
inactive: dose: 75.0 mg/kg/injection, schedule: Q01DX009 (ip), vehicle: Klucel (hydroxypropylcellulose) (HPC) 98 % of control | dose: 75.0 mg/kg/injection, schedule: Q04DX003 (ip), vehicle: Klucel (hydroxypropylcellulose) (HPC) 102 % of control | dose: 150.0 mg/kg/injection, schedule: Q01DX009 (ip), vehicle: Klucel (hydroxypropylcellulose) (HPC) 98 % of control | dose: 150.0 mg/kg/injection, schedule: Q04DX003 (ip), vehicle: Klucel (hydroxypropylcellulose) (HPC) 102 % of control | dose: 300.0 mg/kg/injection, schedule: Q01DX009 (ip), vehicle: Klucel (hydroxypropylcellulose) (HPC) 97 % of control | dose: 300.0 mg/kg/injection, schedule: Q04DX003 (ip), vehicle: Klucel (hydroxypropylcellulose) (HPC) 98 % of control

O=S1C(c2ccccc2)CC1c1ccccc1 (configuration not stated)
inactive: [4] 100 % of control | [5] 105 % of control | [6] 96 % of control

CCCCCCCCS(=O)(O)=S.[Fe]
inactive: dose: 75.0 mg/kg/injection, schedule: Q01DX001 (ip), vehicle: saline 93 % of control | dose: 150.0 mg/kg/injection, schedule: Q01DX001 (ip), vehicle: saline 91 % of control | dose: 300.0 mg/kg/injection, schedule: Q01DX001 (ip), vehicle: saline 91 % of control

Cc1cc(Sc2ccccc2)c2c(C)ccc(C(C)C)cc1-2
inactive: dose: 100.0 mg/kg/injection, schedule: Q01DX001 (ip), vehicle: carboxymethylcellulose (CMC) 95 % of control | dose: 200.0 mg/kg/injection, schedule: Q01DX001 (ip), vehicle: carboxymethylcellulose (CMC) 97 % of control | dose: 400.0 mg/kg/injection, schedule: Q01DX001 (ip), vehicle: carboxymethylcellulose (CMC) 95 % of control

CCOC(=O)CCC1(C(=O)OC)C(=O)CCCCC/C=C/1C(=O)OC (configuration not stated)
inactive: [1] 99 % of control | [2] 101 % of control | [3] 106 % of control

CC(/C=N/N=C(\N)N(C)C)=N\N=C(/N)N(C)C
inactive: dose: 95.0 mg/kg/injection, schedule: Q01DX Z (oral), vehicle: carboxymethylcellulose (CMC) 104 % of control | dose: 190.0 mg/kg/injection, schedule: Q01DX Z (oral), vehicle: carboxymethylcellulose (CMC) 110 % of control | dose: 240.0 mg/kg/injection, schedule: Q01DX Z (ip), vehicle: carboxymethylcellulose (CMC) 96 % of control | dose: 380.0 mg/kg/injection, schedule: Q01DX Z (oral), vehicle: carboxymethylcellulose (CMC) 106 % of control | dose: 760.0 mg/kg/injection, schedule: Q01DX Z (oral), vehicle: carboxymethylcellulose (CMC) 112 % of control

CCC1(O)CC(OC2CC(N(C)C)C(OC3CC(O)C(O)C(C)O3)C(C)O2)c2c(cc3c(c2O)C(=O)c2c(O)ccc(O)c2C3=O)C1C(=O)OC (configuration not stated)
inactive: dose: 1.6 mg/kg/injection, schedule: Q01DX001 (ip), vehicle: saline 108 % of control | dose: 3.2 mg/kg/injection, schedule: Q01DX001 (ip), vehicle: saline 104 % of control | dose: 6.4 mg/kg/injection, schedule: Q01DX001 (ip), vehicle: saline 105 % of control

O=c1[nH]c(=S)nc2nc[nH]n12
inactive: [7] 97 % of control | [8] 102 % of control | dose: 400.0 mg/kg/injection, schedule: Q04DX003 (ip), vehicle: saline 105 % of control

O=C1c2ccccc2C(=O)N1Cc1nc(=S)[nH][nH]1
inactive: dose: 100.0 mg/kg/injection, schedule: Q01DX001 (ip), vehicle: saline with Tween-80 100 % of control | dose: 200.0 mg/kg/injection, schedule: Q01DX001 (ip), vehicle: saline with Tween-80 97 % of control | dose: 400.0 mg/kg/injection, schedule: Q01DX001 (ip), vehicle: saline with Tween-80 97 % of control

O=C1OC(c2ccc(F)c3ccccc23)C2CCCCC12 (configuration not stated)
inactive: dose: 100.0 mg/kg/injection, schedule: Q01DX001 (ip), vehicle: Klucel (hydroxypropylcellulose) (HPC) 102 % of control | dose: 200.0 mg/kg/injection, schedule: Q01DX001 (ip), vehicle: Klucel (hydroxypropylcellulose) (HPC) 102 % of control | dose: 400.0 mg/kg/injection, schedule: Q01DX001 (ip), vehicle: Klucel (hydroxypropylcellulose) (HPC) 96 % of control

O=C(Sc1ccccc1)C1OC1c1ccccc1 (configuration not stated)
inactive: dose: 100.0 mg/kg/injection, schedule: Q04DX003 (ip), vehicle: alcohol 98 % of control | dose: 200.0 mg/kg/injection, schedule: Q04DX003 (ip), vehicle: alcohol 92 % of control | dose: 400.0 mg/kg/injection, schedule: Q04DX003 (ip), vehicle: alcohol 86 % of control

COc1ccc(NC(C)=O)c(C)c1
inactive: dose: 100.0 mg/kg/injection, schedule: Q01DX009 (ip), vehicle: saline with Tween-80 99 % of control | [1] 112 % of control | dose: 200.0 mg/kg/injection, schedule: Q01DX009 (ip), vehicle: saline with Tween-80 96 % of control | [2] 119 % of control | dose: 400.0 mg/kg/injection, schedule: Q01DX009 (ip), vehicle: saline with Tween-80 103 % of control | [3] 96 % of control

CCCCn1cnc2c(SSc3ncnc4c3ncn4CCCC)ncnc21
inactive: dose: 37.5 mg/kg/injection, schedule: Q01DX Z (ip), vehicle: saline 109 % of control | dose: 150.0 mg/kg/injection, schedule: Q01DX Z (ip), vehicle: saline 124 % of control | dose: 166.0 mg/kg/injection, schedule: Q04DX003 (ip), vehicle: gum acacia 121 % of control

O=C(O)C(=O)c1ccccc1
inactive: [7] 92 % of control | [8] 91 % of control

CC(C)CCCCCc1ccc(OCCOc2ccc(C(=O)Nc3ccc(S(=O)(=O)F)cc3N)cc2)cc1
inactive: dose: 100.0 mg/kg/injection, schedule: Q01DX009 (ip), vehicle: saline sonified 107 % of control | [4] 98 % of control | dose: 200.0 mg/kg/injection, schedule: Q01DX009 (ip), vehicle: saline sonified 100 % of control | [5] 96 % of control | dose: 400.0 mg/kg/injection, schedule: Q01DX009 (ip), vehicle: saline sonified 98 % of control | [6] 94 % of control

CC(C)C(N=Cc1cc(Cl)ccc1O)C(=O)O (configuration not stated)
inactive: dose: 100.0 mg/kg/injection, schedule: Q01DX001 (ip), vehicle: steriod suspending solution 105 % of control | dose: 200.0 mg/kg/injection, schedule: Q01DX001 (ip), vehicle: steriod suspending solution 94 % of control | dose: 400.0 mg/kg/injection, schedule: Q01DX001 (ip), vehicle: steriod suspending solution 104 % of control
